In US20230051694A1, “POLYPEPTIDE FRAGMENT B (MP-B) AND USE THEREOF” (SHANGHAI LONGXIN BIOMEDICAL TECHNOLOGY CO., LTD., priority 2021, published 2023):

Test system: DSS-induced IBD in mice
Assay: Intervention effect on DSS-induced acute IBD mouse model
Type: in vivo, Male C57BL6 mice
Conditions: DSS 2.5 wt % induced acute IBD mice, 50 μg/kg intragastric; for colonic histopathologic score / colon length: 7 days pre-administration then daily with DSS, x±SD; for colonic histopathologic score: HE staining; for colon length: in cm (unit assumed)
Procedure: The administration of a DSS solution with a specified concentration to mice can induce an acute IBD model characterized by diarrhea, hematochezia, ulcer, and granulocyte infiltration. Mice were randomly grouped according to body weights of the mice. 40 healthy male C57BL6 mice were divided into four groups each with 10 mice:
blank control group: the mice were each intragastrically administered with water every day at a volume of 0.4 mL/20 g;
model group: the mice were each intragastrically administered with a DSS aqueous solution of a mass fraction of 2.5 wt % consecutively for 7 days, where the DSS aqueous solution was freshly prepared and changed every day;
(§1) MIMP positive control group: the mice were each given a pre-administration process for one week, that is, the mice were each intragastrically administered with an MIMP solution of a mass fraction of 50 μg/kg for the first 7 days, and then from day 8, the mice were each intragastrically administered with a DSS aqueous solution of a mass fraction of 2.5 wt % (at a volume of 0.4 mL/20 g) and an MIMP solution of a mass fraction of 50 μg/kg (at a volume of 0.4 mL/20 g) every day; and
as §1, with “MP-B experimental” for “MIMP positive control”, “MP-B” for “MIMP”, “and” for “and then”, “day.” for “day; and”
The body weight changes of mice in each group were recorded every day to determine whether the acute IBD mouse model was successfully established.
A mouse colon between an anus end to an ileocecal end was integrally collected, and a length of the colon was measured; and the colon was dissected along a longitudinal axis, feces therein were rinsed off, and then the colon was stored in 4% paramethanol.
The colon sample stored in 4% paramethanol in step 1.2 was subjected to histopathological section, stained with hematoxylin-eosin (HE), and dehydrated, obtained sections were sealed and examined under an optical microscope, and the histopathological scoring was conducted by two blind examination operators:
Experimental data in the above experimental method were expressed as (x±SD), the GraphPad Prism (ver. 8.0, GraphPad Software Inc., San Diego, Calif., USA) was used to plot a chart, the SPSS Program (ver. 25.0, SPSS Inc., Chicago, Ill., USA) was used for statistical test, and one-way ANOVA or independent two-sample t-test were used for significance test when the normality and homogeneity of variances were met. It was assumed that α=0.05, and P<0.05 indicates a statistically significant difference.

“SPLGSLDGRETMYNLGGVKYLFARMDQLKKQ (SPLGSLDGRXTMYNLXGVKYLFARXDQLKKQ; Sequence is synthesized; (10)..(10) Xaa can be Arg, Phe, Glu, Thr, or absent; (16)..(16) Xaa can be Asn, Val, Leu, Gly, or absent; (25)..(25) Xaa can be Ser, Glu, Met, Arg, or absent) [MP-B]” was tested, and the “colonic histopathological observation (HE staining micrographs)” value was “no obvious inflammation”, the colonic histopathologic score was 1.4±0.6 and the colon length was 8.0±0.5.

B1: THTVGSYFSVQNGYVGAFSQALGNSEYAMNSPLGSLDGRTTMYNLLGVKYLFAREDQ LKKQ (peptide, listed as Lactobacillus plantarum)
chain: THTVGSYFSVQNGYVGAFSQALGNSEYAMNSPLGSLDGRTTMYNLLGVKYLFAREDQLKKQ
notes: positive control
B1 gave a colonic histopathologic score of 3.1±0.2 and a colon length of 7.6±0.5.
